{"source": "patent US9504728B2", "about": "“Dosage form” (priority 2011, dated 2016)", "key": {"HBV": {"system": "HBV", "conditions": "Ptak et al. 2008; read-out: IC50 against HBV; cited from earlier work"}, "HIV-1": {"system": "HIV-1", "conditions": "Steyn et al., 2006, cited from earlier work"}, "in vivo": {"experiment": "in vivo", "conditions": "CD1 mice, p.o. 10 or 5 mg/kg vs i.v. 1 mg/kg", "description": "For sanglifehrins, whole blood is analysed. Compounds are formulated in 5% ethanol/5% cremophor EL/90% saline for both p.o. and i.v. administration. Groups of 3 male CD1 mice are dosed with either 1 mg/kg i.v. or 5 or 10 mg/kg p.o. Blood samples (40 μL) are taken via saphenous vein, pre-dose and at 0.25, 0.5, 2, 8, and 24 hours, and diluted with an equal amount of dH20 and put on dry ice immediately. Samples are stored at −70° C. until analysis. The concentration of the sanglifehrin or parent compound in the sample is determined via LCMS as follows: 20 μL of blood:H2O (1:1, v/v)/PK sample is added with 20 μL Internal standard (hydroxyl macrocycle, 6) at 100 ng/mL, 20 μL working solution/MeOH and 150 μL of ACN, vortexed for 1 minute at 1500 rpm, and centrifuged at 12000 rpm for 5 min. The supernatant is then injected into LC-MS/MS. The time-course of blood concentrations is plotted and used to derive area under the whole blood concentration-time curve (AUC—which is directly proportional to the total amount of unchanged drug that reaches the systemic circulation). These values are used to generate PK parameters where possible.\nTo assess the pharmacokinetics of the compounds in an in vivo setting, compounds were dosed po at 10 or 5 mg/kg and iv at 1 mg/kg to groups of CD1 mice.\nPharmacokinetic analysis was carried out as described in the general methods."}, "[1]": {"experiment": "In vitro stability in acidic and neutral conditions (SGF, SGF + pepsin, SGF + denatured pepsin, PBS)", "conditions": "1 hour", "description": "1 mM DMSO solutions were made of compounds to be tested and mixed on vibrax to ensure compound was fully dissolved.\nPBS Solution: 2 tablets of Phosphate Buffered Saline (Dulbecco A) tablets (Oxoid, BR0014G) were added to 200 mL distilled water and stirred to mix. pH was measured at 7.28.\nSimulated Gut Fluid (SGF): 300 uL conc. HCl added to 50 mL distilled water and mixed. pH was measured at 1.21.\nSimulated gut fluid+pepsin: 300 uL conc. HCl and 1 g of Pepsin (from Porcine gastric mucosa, Sigma) were added to 50 mL distilled water and mixed by stirring for 1 hr.\nSGF+denatured pepsin: 900 uL of Acidic Enzyme Solution taken into a 2 mL eppendorf tube and heated at 99° C. in a water bath for 30 mins.\nAcidic Enzyme and Acidic Denatured Enzyme solutions were made fresh each day, whereas PBS and Acid Solutions were stored at 4° C. when not in use.\nEppendorfs containing 900 uL of test solutions were pre-warmed in a 37° C. water bath. At t=0, 100 uL of test compound (1 mM DMSO solution) was added to test solution and mixed. 100 uL was taken immediately and mixed into 900 uL acetonitrile in an amber glass LC vial. 50-100 uL of the sample was analysed by HPLC, integrating the compounds' UV peaks to determine degradation over time. Sanglifehrin A was measured at its λmax of 240 nm; 33, 45 and 24 were measured at their λmax of 276 nm.\nFurther samples were taken in the same manner for analysis at approximately t=0.33, 0.67, 1.0, 2.67, and 4.67 hr. A final analysis was run at t=>30 to confirm end point of reaction.\nControls of test compound DMSO solutions in 900 uL DMSO were also prepared and treated in the same manner, with samples analysed at t=0, t=8 and t=>30 hr. Half lives were calculated from the data generated.\nStability of compounds was analysed in simulated gastric fluid, pH1.2 (SGF) and phosphate buffered saline, pH7.3 (PBS)."}, "cyclophilin A (CypA)": {"target": "cyclophilin A (CypA) (Homo sapiens, UniProt P62937)", "sequence (P62937 whole entry)": "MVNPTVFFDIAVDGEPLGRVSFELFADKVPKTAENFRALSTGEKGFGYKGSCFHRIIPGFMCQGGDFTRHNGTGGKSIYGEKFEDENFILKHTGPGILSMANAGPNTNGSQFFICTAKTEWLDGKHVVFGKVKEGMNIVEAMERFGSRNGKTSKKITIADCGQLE", "conditions": "relative to CsA; cited from earlier work"}, "calcineurin": {"system": "calcineurin", "conditions": "in words; Zenke et al. 2001; cited from earlier work"}}, "note": "Like-named read-outs stand apart in the source and are kept apart here."}
{"smiles": "C/C=C/C[C@@H](C)[C@@H](O)[C@H]1C(=O)N[C@@H](CC)C(=O)N(C)[C@H](C)C(=O)N(CC)[C@@H](C(C)C)C(=O)N[C@@H](C(C)C)C(=O)N(C)[C@@H](CC(C)C)C(=O)N[C@@H](C)C(=O)N[C@H](C)C(=O)N(C)[C@@H](CC(C)C)C(=O)N(C)[C@@H](CC(C)C)C(=O)N(C)[C@@H](C(C)C)C(=O)N1C", "note": "[DEBIO-025]", "values": [{"measurement": "IC50", "setting": "HBV", "value": 4.1, "unit": "µM"}, {"measurement": "reduction of HIV-1 RNA levels", "setting": "HIV-1; in nine patients", "value": "≥ 0.5", "unit": "log 10 copies/mL"}, {"measurement": "reduction of HIV-1 RNA levels", "setting": "HIV-1; in two patients", "value": "> 1", "unit": "log 10 copies/mL"}]}
{"smiles": "CC[C@H]1C[C@H](C)[C@@]2(NC1=O)O[C@@H](C[C@H](O)[C@@H](C)CC/C=C/C=C(\\C)[C@@H]1C/C=C/C=C/[C@H](O)[C@H](C)[C@@H](O)[C@@H](CCC(C)=O)C(=O)N[C@@H](C(C)C)C(=O)N[C@@H](Cc3cccc(O)c3)C(=O)N3CCC[C@H](N3)C(=O)O1)[C@H](C)[C@H](O)[C@@H]2C", "note": "[Sanglifehrin A, 5, Sanglifehrin A, reference compound]", "values": [{"measurement": "Oral bioavailability F %", "setting": "in vivo", "value": 1.4, "unit": "%"}, {"measurement": "SGF + denatured pepsin, % remaining after 1 hour", "setting": "[1]; SGF + denatured pepsin, 37° C.", "value": 49, "unit": "%"}, {"measurement": "SGF + Pepsin, % remaining after 1 hour", "setting": "[1]; SGF + pepsin, 37° C.", "value": 41, "unit": "%"}, {"measurement": "PBS % remaining after 1 hour", "setting": "[1]; phosphate buffered saline pH 7.3, 37° C.", "value": 76, "unit": "%"}, {"measurement": "SGF % remaining after 1 hour", "setting": "[1]; simulated gastric fluid pH 1.2, 37° C.", "value": 52, "unit": "%"}, {"measurement": "affinity for CyPA compared to Cyclosporine A (fold higher)", "setting": "cyclophilin A (CypA)", "value": "approximately 20 fold"}, {"measurement": "inhibition of the phosphatase activity of calcineurin", "setting": "calcineurin", "value": "does not inhibit"}]}
